Results published in patent US10189854B2, “Substituted pyrimidine compounds” (Grünenthal GmbH, priority 2014, dated 2019).

Target: human PDE4B1 (Homo sapiens (Human), UniProt Q07343)
Assay: cAMP HTRF assay to determine the activity of hPDE4B1
Type: biochemical
Settings: IC50 inhibition of PDE4B; human recombinant PDE4B1, cAMP HTRF assay
In short: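 Recombinant human PDE4B1 expressed in Sf9 cells (4.8 U) was incubated with 40 nM cAMP for 30 min at room temperature in Tris buffer, pH 7.8, with MgCl2, DTT and Tween 20. HTRF detection of remaining cAMP followed, with 1 mM IBMX stop, read 60 min later as the 665/620 nm ratio. Results are % inhibition versus control.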

human PDE4B1, sequence (Q07343 whole entry): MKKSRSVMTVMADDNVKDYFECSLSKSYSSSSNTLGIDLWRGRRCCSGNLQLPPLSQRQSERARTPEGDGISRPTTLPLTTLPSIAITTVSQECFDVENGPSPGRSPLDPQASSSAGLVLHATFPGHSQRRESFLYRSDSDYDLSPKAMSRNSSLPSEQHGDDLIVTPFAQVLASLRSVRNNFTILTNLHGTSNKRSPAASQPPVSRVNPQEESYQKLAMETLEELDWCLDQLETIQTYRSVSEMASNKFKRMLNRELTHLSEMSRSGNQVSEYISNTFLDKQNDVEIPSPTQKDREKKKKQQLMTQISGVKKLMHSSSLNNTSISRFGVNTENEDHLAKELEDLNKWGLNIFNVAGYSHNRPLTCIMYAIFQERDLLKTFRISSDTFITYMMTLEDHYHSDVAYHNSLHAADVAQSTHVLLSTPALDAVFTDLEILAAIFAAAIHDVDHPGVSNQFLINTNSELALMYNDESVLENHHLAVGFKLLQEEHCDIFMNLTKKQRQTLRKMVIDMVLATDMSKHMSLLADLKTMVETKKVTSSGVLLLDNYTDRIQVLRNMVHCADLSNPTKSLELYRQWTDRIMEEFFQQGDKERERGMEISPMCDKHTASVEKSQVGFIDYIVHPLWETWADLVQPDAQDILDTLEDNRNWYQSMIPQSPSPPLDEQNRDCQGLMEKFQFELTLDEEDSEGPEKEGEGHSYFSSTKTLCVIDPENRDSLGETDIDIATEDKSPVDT

Row | Compound | IC50
1 | COC1CCN(C(=O)c2ccc3c(c2)N(c2ncc(-c4ccccc4F)cn2)CC32CC2)CC1 [Compound 100, [1-[5-(2-Fluorophenyl)-pyrimidin-2-yl]-spiro[1,2-dihydro-indole-3,1′-cyclopropane]-6-yl]-(4-methoxy-piperidin-1-yl)-methanone] | 0.1 to 1 µM
2 | [1-[5-(4-Amino-pyridin-2-yl)-pyrimidin-2-yl]-spiro[1,2-dihydro-indole-3,1′-cyclopropane]-6-yl]-morpholin-4-yl-methanone [Compound 181] | < 0.1 µM
3 | Cc1ccnc(-c2cnc(N3CC4(CC4)c4ccc(C(=O)N5CCOCC5)cc43)nc2)c1 [Compound 192, [1-[5-(4-Methyl-pyridin-2-yl)-pyrimidin-2-yl]-spiro[1,2-dihydro-indole-3,1′-cyclopropane]-6-yl]-morpholin-4-yl-methanone] | < 0.1 µM
4 | O=C(c1ccc2c(c1)N(c1ncc(Oc3ccccc3F)cn1)CC21CC1)N1CCOCC1 [Compound 179, [1-[5-(2-Fluoro-phenoxy)-pyrimidin-2-yl]-spiro[1,2-dihydro-indole-3,1′-cyclopropane]-6-yl]-morpholin-4-yl-methanone] | 0.1 to 1 µM
5 | [1-[5-(6-Methoxy-pyridazin-3-yl)-pyrimidin-2-yl]-spiro[1,2-dihydro-indole-3,1′-cyclopropane]-6-yl]-morpholin-4-yl-methanone [Compound 201] | < 0.1 µM
6 | O=C(c1ccc2c(c1)N(c1ncc(-c3ccccc3F)cn1)CC21CC1)N1CCCC(O)C1 (stereo not shown) [Compound 96, [1-[5-(2-Fluorophenyl)-pyrimidin-2-yl]-spiro[1,2-dihydro-indole-3,1′-cyclopropane]-6-yl]-(3-hydroxy-piperidin-1-yl)-methanone] | < 0.1 µM
7 | COc1ccsc1-c1cnc(N2CC3(CC3)c3ccc(C(=O)N4CCOCC4)cc32)nc1 [Compound 139, [1-[5-(3-Methoxy-thiophen-2-yl)-pyrimidin-2-yl]-spiro[1,2-dihydro-indole-3,1′-cyclopropane]-6-yl]-morpholin-4-yl-methanone] | < 0.1 µM
8 | CN(C)[C@@H]1CCN(C(=O)c2ccc3c(c2)N(c2ncc(-c4ccccc4F)cn2)CC32CC2)C1 [Compound 110, [(3R)-3-Dimethylamino-pyrrolidin-1-yl]-[1-[5-(2-fluorophenyl)-pyrimidin-2-yl]-spiro[1,2-dihydro-indole-3,1′-cyclopropane]-6-yl]-methanone] | 0.1 to 1 µM
9 | O=C(c1ccc2c(c1)N(c1ncc(-c3ccccc3C3CC3)cn1)CC21CC1)N1CCOCC1 [Compound 62, [1-[5-(2-Cyclopropyl-phenyl)-pyrimidin-2-yl]-spiro[1,2-dihydro-indole-3,1′-cyclopropane]-6-yl]-morpholin-4-yl-methanone] | 1 to 10 µM
10 | 1-[5-(3-Cyano-phenyl)-pyrimidin-2-yl]-N-(2-hydroxy-ethyl)-N-methyl-spiro[1,2-dihydro-indole-3,1′-cyclopropane]-6-carboxylic acid amide [Compound 194] | < 0.1 µM
11 | NC(=O)c1ccc(-c2cnc(N3CC4(CC4)c4ccc(C(=O)N5CCOCC5)cc43)nc2)o1 [Compound 156, 5-[2-[6-(Morpholine-4-carbonyl)-spiro[1,2-dihydro-indole-3,1′-cyclopropane]-1-yl]-pyrimidin-5-yl]-furan-2-carboxylic acid amide] | < 0.1 µM
12 | Cc1ncccc1-c1cnc(N2CC3(CC3)c3ccc(C(=O)N4CCOCC4)cc32)nc1 [Compound 167, [1-[5-(2-Methyl-pyridin-3-yl)-pyrimidin-2-yl]-spiro[1,2-dihydro-indole-3,1′-cyclopropane]-6-yl]-morpholin-4-yl-methanone] | < 0.1 µM
13 | O=C(c1ccc2c(c1)N(c1ncc(-c3ccccc3F)cn1)CC21CC1)N1CC(O)C1 [Compound 36, [1-[5-(2-Fluorophenyl)-pyrimidin-2-yl]-spiro[1,2-dihydro-indole-3,1′-cyclopropane]-6-yl]-(3-hydroxy-azetidin-1-yl)-methanone] | 0.1 to 1 µM
14 | NC(=O)c1ccc(F)c(-c2cnc(N3CC4(CC4)c4ccc(C(=O)N5CCOCC5)cc43)nc2)c1 [Compound 35, 4-Fluoro-3-[2-[6-(morpholine-4-carbonyl)-spiro[1,2-dihydro-indole-3,1′-cyclopropane]-1-yl]-pyrimidni-5-yl]-benzamide] | < 0.1 µM
15 | CS(=O)(=O)c1ccccc1-c1cnc(N2CC3(CC3)c3ccc(C(=O)N4CCOCC4)cc32)nc1 [Compound 28, [1-[5-(2-Methylsulfonyl-phenyl)-pyrimidin-2-yl]-spiro[1,2-dihydro-indole-3,1′-cyclopropane]-6-yl]-morpholin-4-yl-methanone] | 0.1 to 1 µM
16 | O=C1CN(C(=O)c2ccc3c(c2)N(c2ncc(-c4ccccc4)cn2)CC32CC2)CCN1 [Compound 55, 4-[1-(5-Phenyl-pyrimidin-2-yl)-spiro[1,2-dihydro-indole-3,1′-cyclopropane]-6-carbonyl]-piperazin-2-one] | < 0.1 µM

Row | Compound | IC50
17 | N#CCCN1CCN(C(=O)c2ccc3c(c2)N(c2ncc(-c4ccccc4F)cn2)CC32CC2)CC1 [Compound 76, 3-[4-[1-[5-(2-Fluorophenyl)-pyrimidin-2-yl]-spiro[1,2-dihydro-indole-3,1′-cyclopropane]-6-carbonyl]-piperazin-1-yl]-propionitrile] | 0.1 to 1 µM
18 | CN(CCN)C(=O)c1ccc2c(c1)N(c1ncc(-c3ccccc3F)cn1)CC21CC1 [Compound 41, N-(2-Amino-ethyl)-1-[5-(2-fluorophenyl)-pyrimidin-2-yl]-N-methyl-spiro[1,2-dihydro-indole-3,1′-cyclopropane]-6-carboxylic acid amide] | < 0.1 µM
19 | COCCCNC(=O)c1ccc2c(c1)N(c1ncc(-c3ccccc3F)cn1)CC21CC1 [Compound 75, 1-[5-(2-Fluorophenyl)-pyrimidin-2-yl]-N-(3-methoxy-propyl)-spiro[1,2-dihydro-indole-3,1′-cyclopropane]-6-carboxylic acid amide] | 0.1 to 1 µM
20 | O=C(c1ccc2c(c1)N(c1ncc(-c3ccccc3F)cn1)CC21CC1)N1CC2CC1CN2 (stereo not shown) [Compound 107, (2,5-Diazabicyclo[2.2.1]heptan-2-yl)-[1-[5-(2-fluorophenyl)-pyrimidin-2-yl]-spiro[1,2-dihydro-indole-3,1′-cyclopropane]-6-yl]-methanone] | < 0.1 µM
21 | COCC1CCN(C(=O)c2ccc3c(c2)N(c2ncc(-c4ccccc4F)cn2)CC32CC2)CC1 [Compound 217, [1-[5-(2-Fluorophenyl)-pyrimidin-2-yl]-spiro[1,2-dihydro-indole-3,1′-cyclopropane]-6-yl]-[4-(methoxymethyl)-piperidin-1-yl]-methanone] | 1 to 10 µM
22 | O=C(c1ccc2c(c1)N(c1ncc(-c3cccc(F)c3)cn1)CC21CC1)N1CCOCC1 [Compound 57, [1-[5-(3-Fluorophenyl)-pyrimidin-2-yl]-spiro[1,2-dihydro-indole-3,1′-cyclopropane]-6-yl]-morpholin-4-yl-methanone] | < 0.1 µM
23 | N#Cc1csc(-c2cnc(N3CC4(CC4)c4ccc(C(=O)N5CCOCC5)cc43)nc2)c1 [Compound 161, 5-[2-[6-(Morpholine-4-carbonyl)-spiro[1,2-dihydro-indole-3,1′-cyclopropane]-1-yl]-pyrimidin-5-yl]-thiophene-3-carbonitrile] | < 0.1 µM
24 | CN(C)C(=O)c1ccc2c(c1)N(c1ncc(-c3ccccc3F)cn1)CC21CC1 [Compound 2, 1-[5-(2-Fluorophenyl)-pyrimidin-2-yl]-N,N-dimethyl-spiro[1,2-dihydro-indole-3,1′-cyclopropane]-6-carboxylic acid amide] | < 0.1 µM
25 | NC(=O)c1cccc(-c2cnc(N3CC4(CC4)c4ccc(C(=O)N5CC[C@@H](N)C5)cc43)nc2)c1 [Compound 118, 3-[2-[6-[(3R)-3-Amino-pyrrolidine-1-carbonyl]-spiro[1,2-dihydro-indole-3,1′-cyclopropane]-1-yl]-pyrimidin-5-yl]-benzamide] | < 0.1 µM
26 | CN(C)C(=O)c1ccc(-c2cnc(N3CC4(CC4)c4ccc(C(=O)N5CCOCC5)cc43)nc2)c(F)c1 [Compound 65, 3-Fluoro-N,N-dimethyl-4-[2-[6-(morpholine-4-carbonyl)-spiro[1,2-dihydro-indole-3,1′-cyclopropane]-1-yl]-pyrimidin-5-yl]-benzamide] | < 0.1 µM
27 | O=C(c1ccc2c(c1)N(c1ncc(-c3cccc(F)n3)cn1)CC21CC1)N1CCOCC1 [Compound 151, [1-[5-(6-Fluoro-pyridin-2-yl)-pyrimidin-2-yl]-spiro[1,2-dihydro-indole-3,1′-cyclopropane]-6-yl]-morpholin-4-yl-methanone] | < 0.1 µM
28 | Cc1n[nH]c(C)c1-c1cnc(N2CC3(CC3)c3ccc(C(=O)N4CCOCC4)cc32)nc1 [Compound 144, [1-[5-(3,5-Dimethyl-1H-pyraozl-4-yl)-pyrimidin-2-yl]-spiro[1,2-di-hydro-indole-3,1′-cyclopropane]-6-yl]-morpholin-4-yl-methanone] | < 0.1 µM
29 | CN(CCO)C(=O)c1ccc2c(c1)N(c1ncc(-c3cnn(C)c3)cn1)CC21CC1 [Compound 199, N-(2-Hydorxy-ethyl)-N-methyl-1-[5-(1-methyl-1H-pyrazol-4-yl)-pyrimidin-2-yl]-spiro[1,2-dihydro-indole-3,1′-cyclopropane]-6-carboxylic acid amide] | < 0.1 µM
30 | O=C(c1ccc2c(c1)N(c1ncc(-c3cccc(Cl)c3)cn1)CC21CC1)N1CCOCC1 [Compound 51, [1-[5-(3-Chlorophenyl)-pyrimidin-2-yl]-spiro[1,2-dihydro-indole-3,1′-cyclopropane]-6-yl]-morpholin-4-yl-methanone] | 0.1 to 1 µM
31 | O=C(c1ccc2c(c1)N(c1ncc(-c3cccnc3F)cn1)CC21CC1)N1CCOCC1 [Compound 145, [1-[5-(2-Fluoro-pyridin-3-yl)-pyrimidin-2-yl]-spiro[1,2-dihydro-indole-3,1′-cyclopropane]-6-yl]-morpholin-4-yl-methanone] | < 0.1 µM
